Results published in patent US10583210B2, “Auger electron therapy for glioblastoma” (Syddansk Universitet, priority 2014, dated 2020).
“Also recorded” adds a separate entry of the source.

Legend:
T87 glioblastoma cells = experiment: CellTiter Blue viability assay, T87 cells; type: cell-based, human
Method: (§1) Cells were cultured as free-floating spheroids in the absence of serum at 36° C. in a humidified incubator with 5% CO2. Two GSCs passage 9-12, designated […], were utilized. They were established, as previously described in our laboratory in 2009 ([…]) and 2010 ([…]), in accordance with the Regional Scientific Ethical Committee (approval number S-VF-20040102). They have; the ability to form new spheroids at clonal density, a karyotype typical of GBMs, the ability to differentiate into cells expressing neuronal, astrocytic and oligodendrocyte markers upon culturering in serum-containing medium and the ability to form highly invasive tumors upon orthotopic xenografting (exemplified for the […] GCS in Supplementary FIG. 1). […] The cells were then incubated in serum-free medium or serum-free medium containing either the non-radioactive, but chemically identical ^[…]-UdR (0.3 μg/ml, Sigma-Aldrich), or increasing activities of ^125I-UdR (0-3 kBq/ml). At day 7, 20 μl of CellTiter Blue (Promega) was added and the cells were returned to the incubator for 6 hours prior to recording of the fluorescence in a Victor3 Multilabel Plate Reader (PerkinElmer Life Sciences).

T87 GBM cells = experiment: 125I-UdR incorporation after MTX/F-UdR exposure, T87 (gammacounter); type: cell-based, human; conditions: for 125I-UdR incorporation compared to non-treated control cells: 1 hour pre-treatment with 1 μM, 16 h later 100 Bq/mL 125I-UdR for 72 h
Method: A) 1 hour pre-treatment of T87 GBM cells in vitro with 1 μM MTX or F-UdR before ^125I-UdR exposure increased the ^125I incorporation in the cells. […] The incorporation rate was determined by a gammacounter. […] F-UdR was effective in concentrations ≥1 nM while MTX was effective at ≥10 nM. At a F-UdR concentration of 10 μM, the 125I-incorporation declined presumably do to toxic effects from the F-UdR. […] Opposed to the T87 cell line, the T86 cell line is also known to have an unmethylated MGMT promoter region, thereby being less responsive to TMZ chemotherapy.

[1] = test system: TE-671 human rhabdomyosarcoma cells; conditions: IT bolus of 125I-UdR, IT infusion of MTX; cited from earlier work
[2] = test system: orthotopic xenografted GBM (evolved from the T87 GSC); experiment: Therapeutic study in orthotopic xenografted GBM-bearing nude rats (PET, survival, histology)
Method: All animal procedures were conducted in accordance with the obtained approval from the national Animal Experiments Inspectorate (permission J. Nr. 2008/561-1572). Male athymic nude rats (n=24) aged six weeks (Hsd:RH-Foxnl mu, Harlan laboratories) were anaesthetized subcutaneously (mixture of Hypnorm and Midazolam) and placed in a small animal stereotaxic instrument (Model 900, David Kopf Instruments). Through a midline scalp incision, the bregma was exposed, and one mm anteriorly and two mm laterally to this a burr hole was made. A blunt cannula (Hamilton 7102 syringe) was then advanced to a depth of 3.5 mm (right striatum), and a 2 μl cell suspension of 300,000 T87 single cells in Hank's Balanced Salt Solution (Gibco) supplemented with 0.9% glucose (SAD 500 mg/ml) was slowly injected. After removal of the cannula, the skin was closed with VICRYL 5.0 (Ethicon) disrupted sutures. Two weeks after tumor-cell inoculation, a SMP-200 iPRECIO® Micro Infusion Pump (Data Sciences International) was implanted subcutaneously, since preliminary experiments had shown establishment of tumors at this time point. Infusion protocols (instant mode, constant flow mode and 5 μl/hour infusion rate) were downloaded, and the pumps were conditioned according to Low Flow Infusion Standard Operational Procedure. Rats were anaesthetized and fixated as described above. The midline incision was re-incised and the burr hole was identified. A 4 mm pump connector cannula (PlasticsOne model 328OPM/PK/Spc) was then connected to the pump catheter and implanted (according to the manufactures Technical Note 6) with the tip of the cannula in the center of the bulk tumor. Pumps were loaded with isotone saline (n=8, group I) or 0.1 mM MTX (Sigma-Aldrich) (n=16, group II and III). Finally, the skin was closed with VICRYL 5.0 disrupted sutures. As one of the rats with an MTX loaded pump never woke up after surgery it was censored from the study. Two days later the 23 rats were anaesthetized using isoflurane, and residual saline or MTX was extracted from the pump reservoirs according to the manufacturer's instructions. The reservoirs were refilled with 960 μl of 0.3 μg/m ^127I-UdR (n=8, group I) or twice with the ^125I-UdR activity (n=15, group II and III), enabling 8 days of continuous infusion and a cumulated infused ^125I-UdR activity of 83±7 MBq.
Rats were fed ad libitum and to block the thyroid gland, KI (Sigma-Aldrich) was added to the drinking water (1 mg/ml) from the day of pump implantation and the following 14 days. At the end of the observation period (180 days after completion of treatment) or once animals reached the pre-determined humane endpoints (neurological deficits or >20% weight-loss) they were anaesthetized by isoflurane and euthanized by intravenous pentobarbital injection.
For tumor response evaluation, the animals were PET scanned biweekly in the initial phase and later every third week using the Inveon PET scanner. […] After the tracer injection pairs of animals were placed head-to-head in the scanner and at 40 min. post injection a 14 min. static scan was performed. The acquired data were reconstructed using the ordered subset expectation maximization in two dimensions algorithm without scatter and attenuation correction in the Inveon Acquisition Workplace software module (Siemens).
Brain, thyroid gland, liver and kidneys were removed post-mortem and fixed in 4% formaldehyde. After fixation, brains were divided in one mm thick coronal sections using a rat brain matrix (PlaticsOne) followed by paraffin embedment. […] Three μm sections were cut and all sections were stained with HE for morphological evaluation.

T78 spheroids = experiment: 2D spheroid migration assay, T78; type: cell-based, human; conditions: 3 kBq/ml 125I-UdR, from day three, vs 127I-UdR treated spheroids
Method: (§2) Geltrex (Gibco) and serum-free medium was mixed (1+49) and 1.4 ml was added to each well in 12-well plates. Coated plates were incubated over night at 36° C. and the following morning the supernatant was aspirated. Then, one spheroid (100-200 μm) was aspirated into a 0.1-2.0 μl pipette and meticulously embedded in the coating. After incubating the plate for 75 minutes at 36° C., 800 μl serum-free medium was added. When spheroids started migrating (designated day 0) additionally 200 μl of serum-free medium (serving as untreated controls), ^127I-UdR or ^125I-UdR was added resulting in a final concentration of 0.3 μg/ml or 3 kBq/ml of ^127I-UdR or ^125I-UdR, respectively. Images were obtained daily from day 0 to day 5 using a Leica DM IRB inverted phase-contrast microscope, a Leica DFC300FX camera, and the Leica Application Suite version 2.6.0 RI computer software. The radius of the spheroids was determined (http://imagej.nih.gov/ij/) and the migration speed/day was calculated.

T87 spheroids = experiment: 2D spheroid migration assay, T87; type: cell-based, human; conditions: for spheroid migration: 3 kBq/ml 125I-UdR or 0.3 μg/ml 127I-UdR, day 0-5, effect from day three
Method: as §2

[3] = test system: T78 glioblastoma (GBM) cells; experiment: CellTiter Blue viability assay, T78 cells; type: cell-based, human
Method: as §1

C6 glioma = conditions: local implant, 7.4 MBq 125I-UdR, passive diffusion; cited from earlier work
[4] = Intracerebral distribution by SPECT/CT; type: in vivo, athymic nude rats; conditions: constant intratumoral CED for 8 days, last day of infusion
Method: The intracranial distribution of infused ^125I-UdR was measured at the last day of infusion using a Siemens Inveon Small Animal PET/SPECT/CT scanner. The animals were anesthetized using isoflurane and subsequently SPECT scanned for approximately 42 min using 1.8 mm pinhole collimators (3×1.8 RWB collimators) with 30 projections in 180 degrees rotation. […] In one of the animals a low-dose CT scan was performed in combination with the SPECT scan to visualize the surrounding cranium.

[5] = Adverse effect evaluation (blood samples, post-mortem histology); type: in vivo, athymic nude rats
[6] = co-incubation with 18.5 KBq/mL 125I-UdR for 4 hours

SMILES: O=c1[nH]c(=O)n([C@H]2C[C@H](O)[C@@H](CO)O2)cc1F [F-UdR, 5-Fluoro-2′-deoxyuridine]
- killing effect compared with MTX (T87 glioblastoma cells; T87, 7 days exposure): stronger killing effect
- 125I-UdR incorporation compared to non-treated control cells (T87 GBM cells): significantly increase
- concentration effective in increasing 125I incorporation (T87 GBM cells; [6]): ≥ 1 nM
- 125I-incorporation at 10 μM (T87 GBM cells; co-incubation with 18.5 KBq/mL 125I-UdR for 4 hours, presumably toxic effects): declined

SMILES: CN(Cc1cnc2nc(N)nc(N)c2n1)c1ccc(C(=O)N[C@@H](CCC(=O)O)C(=O)O)cc1 [MTX, methotrexate]
- median time to onset of paralysis [1]: no significant effect
- 125I-UdR incorporation compared to non-treated control cells (T87 GBM cells): significantly increase
- concentration effective in increasing 125I incorporation (T87 GBM cells; [6]): ≥ 10 nM

SMILES: Cn1nnc2c(C(N)=O)ncn2c1=O [TMZ, temozolomide]
- maximum survival extrapolated for TMZ monotherapy ([2]; extrapolating the U87MG data to the present findings): 66 days
- median survival ([2]; orthotopic GBM rat model, KM-survival plot FIG. 14): 47 days

SMILES: O=c1[nH]c(=O)n([C@H]2C[C@H](O)[C@@H](CO)O2)cc1[125I] [^125I-UdR, 5-[^125I]iodo-2′-deoxyuridine]
- spheroid migration (T78 spheroids): significantly reduced
- spheroid migration (T87 spheroids): significantly reduced; also recorded: clearly inhibited
- spheroid expansion in size (T87 spheroids; vs untreated or 127I-UdR exposed spheroids): not able to expand in size
- cell survival compared to untreated controls ([3]; T78, day 7, most activity concentrations (0-3 kBq/ml), p<0.0001): significantly decreased
- activity concentrations with highly significant effect compared to 127I-UdR ([3]; T78, p<0.0001): ≥ 100 Bq/ml
- IC50 (cell viability) (T87 glioblastoma cells; T87, 7 days exposure, non-linear regression, range printed 99-120 Bq/mL): 109 Bq/mL
- cell survival compared to untreated controls (T87 glioblastoma cells; T87, day 7, most activity concentrations (0-3 kBq/ml), p<0.0001): significantly decreased
- activity concentrations with highly significant effect compared to 127I-UdR (T87 glioblastoma cells; T87, p<0.0001): ≥ 100 Bq/ml
- animals surviving the entire observation period of 180 days (C6 glioma): 20%
- median survival (C6 glioma): 35 days
- 125I in the tumor region by SPECT/CT [4]: high concentration

SMILES: O=c1[nH]c(=O)n([C@H]2C[C@H](O)[C@@H](CO)O2)cc1I [^127I-UdR, 5-iodo-2′-deoxyuridine]
- spheroid migration (T87 spheroids): unaffected
- animals developing a PET-detectable tumor / tumor progression by [11C]MeAIB PET ([2]; 180 days observation period): rapidly progressed
- animals surviving the entire observation period ([2]; 180 days, surviving/total animals): 0/8
- time from therapy initiation to the first PET-based tumor detection ([2]; [11C]MeAIB PET): 21 days
- post-mortem histology of the brains ([2]; anti-human vimentin staining): very large tumors
- longest survival after initiation of treatment ([2]; death due to massive tumor burden): ≤ 23 days
- animals surviving the entire observation period of 180 days (C6 glioma): No ^127I-UdR treated animal survived the entire observation period
- median survival (C6 glioma): 20 days
- animals with dark neurons in the hippocampus (CA3 region) ([5]; HE stained brain sections): 4/8
- animals with dark neurons in the neocortex ([5]; HE stained brain sections): 7/8
- thyroid gland histology ([5]; HE stained sections): normofollicular architecture
- liver histology (hepatocyte necrosis, haemorrhage, inflammation) ([5]; PAS-diastase staining): no signs of hepatocyte necrosis, haemorrhage or inflammation
